Laboratory results: patent US20110135742A1, “CONTROLLED RELEASE ENCAPSULATED ANTI-BACTERIAL AND ANTI-INFLAMMATORY NANOPARTICLES” (The Regents of the University of California, priority 2006, published 2011)

Experiments:
[1] = recorded, background statement; cited from earlier work
P. acnes [2] = assay: Scanning electron microscopy of P. acnes; assay type: cell-based; details: FIG. 7
P. acnes [3] = assay: CFU assay against P. acnes; assay type: cell-based; details: FIG. 4
eukaryotic cells = assay: MTT assay; assay type: cell-based; details: FIG. 6
IL-12p40 = assay: P. acnes stimulated IL-12p40 production by primary human monocytes; assay type: cell-based; details: primary human monocytes stimulated with P. acnes; dilutions 1, 10^-1, 10^-2; FIG. 5

Row | Compound | success as acne medication [1] | physical changes in the bacteria, compared with control (P. acnes [2]) | killing of P. acnes, benzoyl peroxide un-encapsulated or nanoparticle encapsulated (P. acnes [3]) | toxicity to eukaryotic cells (eukaryotic cells) | inhibition of IL-12p40 production (IL-12p40)
1 | CC1=C(/C=C/C(C)=C/C=C/C(C)=C\C(=O)O)C(C)(C)CCC1 [Isotretinoin] | 80-90% |  |  |  | 
2 | O=C(OOC(=O)c1ccccc1)c1ccccc1 [benzoyl peroxide] |  | destroy the bacteria and kill P. acnes | kills bacteria | not toxic | inhibited
